Experimental data: US20250115600A1, “COVALENT MODIFIERS OF AKT1 AND USES THEREOF” (Terremoto Biosciences, Inc., priority 2022, published 2025)

Tests used:
Assay in all cases: Live cell target engagement (NanoBRET) in HEK293 cells
Format in all cases: cell-based
[1] = molecular target: AKT2 (Homo sapiens (Human), UniProt P31751); conditions: HEK293, 2 hours at 37° C.
[2] = molecular target: AKT1 E17K (Homo sapiens (Human), UniProt P31749, E17K); conditions: for IC50: HEK293, 2 hours at 37° C.
[3] = molecular target: AKT1 WT (Homo sapiens (Human), UniProt P31749); conditions: HEK293, 2 hours at 37° C.
AKT1 WT, sequence (P31749 whole entry): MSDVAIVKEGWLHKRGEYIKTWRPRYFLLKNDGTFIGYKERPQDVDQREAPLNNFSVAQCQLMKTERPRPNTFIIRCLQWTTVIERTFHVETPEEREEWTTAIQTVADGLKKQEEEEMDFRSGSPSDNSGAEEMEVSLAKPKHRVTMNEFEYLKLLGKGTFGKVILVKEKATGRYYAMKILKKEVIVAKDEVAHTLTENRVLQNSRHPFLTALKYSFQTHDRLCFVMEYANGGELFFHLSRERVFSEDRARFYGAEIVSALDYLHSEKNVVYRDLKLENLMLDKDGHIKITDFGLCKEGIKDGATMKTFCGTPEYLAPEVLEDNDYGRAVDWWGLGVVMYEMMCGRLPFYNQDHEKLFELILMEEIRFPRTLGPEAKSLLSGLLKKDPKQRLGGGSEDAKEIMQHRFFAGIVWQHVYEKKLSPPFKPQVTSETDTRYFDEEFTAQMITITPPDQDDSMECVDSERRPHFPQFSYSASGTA

AKT1 E17K, sequence (P31749 whole entry E17K): as the sequence (P31749 whole entry) above, with E17K counted along it
AKT2, sequence (P31751 whole entry): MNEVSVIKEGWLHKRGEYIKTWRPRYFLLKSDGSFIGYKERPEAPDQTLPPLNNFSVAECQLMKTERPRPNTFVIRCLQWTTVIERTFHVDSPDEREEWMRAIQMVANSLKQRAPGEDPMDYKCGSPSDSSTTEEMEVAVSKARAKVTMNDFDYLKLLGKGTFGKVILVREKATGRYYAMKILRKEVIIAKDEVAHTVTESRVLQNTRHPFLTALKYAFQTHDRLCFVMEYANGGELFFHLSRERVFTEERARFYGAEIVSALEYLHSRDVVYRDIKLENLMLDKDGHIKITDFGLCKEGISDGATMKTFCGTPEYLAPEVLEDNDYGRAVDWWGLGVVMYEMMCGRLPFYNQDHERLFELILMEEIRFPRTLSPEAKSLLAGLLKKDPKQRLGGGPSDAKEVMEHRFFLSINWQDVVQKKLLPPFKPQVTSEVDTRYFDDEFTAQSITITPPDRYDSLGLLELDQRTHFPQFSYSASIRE

| IC50 [1] [nM] | AKT1 E17K IC50: Selectivity vs AKT1 WT [2] | AKT1 E17K IC50: Selectivity vs AKT2 [2] | IC50 [2] [nM] | IC50 [3] [nM] | SMILES |
| --- | --- | --- | --- | --- | --- |
| 100 to 500 | 1.6 | 4.7 | 100 to 500 | 100 to 500 | COc1c(CCNCc2ccc(-n3c(-c4cccnc4N)nc4ccc(-c5ccccc5)nc43)cc2)ccc(C=O)c1O [Compound 76, 4-{2-[({4-[2-(2-aminopyridin-3-yl)-5-phenylimidazo[4,5-b]pyridin-3-yl]phenyl}methyl)amino]ethyl}-2-hydroxy-3-methoxybenzaldehyde] |
| 100 to 500 | 1.5 | 7 | < 100 | < 100 | Nc1ncccc1-c1nc2ccc(-c3ccccc3)nc2n1-c1ccc(CNCCCc2ccc(C=O)c(O)c2)cc1 [Compound 130, 4-(3-((4-(2-(2-aminopyridin-3-yl)-5-phenyl-3H-imidazo[4,5-b]pyridin-3-yl)benzyl)amino)propyl)-2-hydroxybenzaldehyde] |
| > 500 | 8.7 | 18 | 100 to 500 | > 500 | Nc1ncccc1-c1nc2ccc(C3CC3C(=O)N3CCOCC3)nc2n1-c1ccc(CNC(=O)Cc2ccc(C=O)c(O)c2)cc1 (stereo not shown) [Example 6, N-({4-[2-(2-aminopyridin-3-yl)-5-[2-(morpholine-4-carbonyl)cyclopropyl]imidazo[4,5-b]pyridin-3-yl]phenyl}methyl)-2-(4-formyl-3-hydroxyphenyl)acetamide] |
| 100 to 500 | 1.9 | 10 | < 100 | < 100 | CC(NC(=O)Cc1ccc(C=O)c(O)c1)c1ccc(-n2c(-c3cccnc3N)nc3ccc(-c4ccccc4)nc32)cc1 (stereo not shown) [Compound 116, N-(1-{4-[2-(2-aminopyridin-3-yl)-5-phenylimidazo[4,5-b]pyridin-3-yl]phenyl}ethyl)-2-(4-formyl-3-hydroxyphenyl)acetamide] |
| 100 to 500 | 3.4 | 140 | < 100 | < 100 | Nc1ncccc1-c1nc2ccc(-n3cccn3)nc2n1-c1ccc(CNC(=O)Cc2ccc(C=O)c(O)c2)cc1 [Compound 35, N-({4-[2-(2-aminopyridin-3-yl)-5-(pyrazol-1-yl)imidazo[4,5-b]pyridin-3-yl]phenyl}methyl)-2-(4-formyl-3-hydroxyphenyl)acetamide] |
| > 500 | 16 | >160 | < 100 | > 500 | Nc1ncccc1-c1nc2ccc(-c3ccccc3)nc2n1-c1ccc(CNC(=O)C2(c3ccc(C=O)c(O)c3)CC2)cc1 [Compound 69, N-({4-[2-(2-aminopyridin-3-yl)-5-phenylimidazo[4,5-b]pyridin-3-yl]phenyl}methyl)-1-(4-formyl-3-hydroxyphenyl)cyclopropane-1-carboxamide] |
| > 500 | 2.4 | 41 | < 100 | 100 to 500 | Nc1ncccc1-c1nc2ccc(C3CC3)nc2n1-c1ccc(CNCCc2ccc(C=O)c(O)c2)cc1 [Example 16, 4-{2-[({4-[2-(2-aminopyridin-3-yl)-5-cyclopropylimidazo[4,5-b]pyridin-3-yl]phenyl}methyl)amino]ethyl}-2-hydroxybenzaldehyde] |
| 100 to 500 | 0.86 | 2.3 | < 100 | < 100 | Nc1ncccc1-c1nc2ccc(-c3ccccc3)nc2n1-c1ccc(CNCCc2ccc(C=O)c(O)c2Cl)cc1 [Compound 120, 4-{2-[({4-[2-(2-aminopyridin-3-yl)-5-phenylimidazo[4,5-b]pyridin-3-yl]phenyl}methyl)amino]ethyl}-3-chloro-2-hydroxybenzaldehyde] |
| > 500 | 8.2 | 45 | < 100 | 100 to 500 | CC(C)(C(=O)NCc1ccc(-n2c(-c3cccnc3N)nc3ccc(-c4ccccc4)nc32)cc1)c1ccc(C=O)c(O)c1 [Compound 60, N-({4-[2-(2-aminopyridin-3-yl)-5-phenylimidazo[4,5-b]pyridin-3-yl]phenyl}methyl)-2-(4-formyl-3-hydroxyphenyl)-2-methylpropanamide] |
| 100 to 500 | 3.9 | 55 | < 100 | < 100 | Nc1ncccc1-c1nc2ccc(-c3cccnc3)nc2n1-c1ccc(CNCCc2ccc(C=O)c(O)c2F)cc1 [Compound 88, 4-(2-((4-(2-(2-aminopyridin-3-yl)-5-(pyridin-3-yl)-3H-imidazo[4,5-b]pyridin-3-yl)benzyl)amino)ethyl)-3-fluoro-2-hydroxybenzaldehyde] |
| > 500 | 0.47 | 2.5 | 100 to 500 | 100 to 500 | Nc1ncccc1-c1nc2cccnc2n1-c1ccc(CNCCc2ccc(C=O)c(C(F)F)c2)cc1 [Compound 80, 4-{2-[({4-[2-(2-aminopyridin-3-yl)imidazo[4,5-b]pyridin-3-yl]phenyl}methyl)amino]ethyl}-2-(difluoromethyl)benzaldehyde] |
| 100 to 500 | 1.3 | 6.5 | < 100 | < 100 | Nc1ncccc1-c1nc2ccc(-c3ccccc3)nc2n1-c1ccc(CNC(=O)c2ccc(C=O)c(O)c2F)cc1 [Compound 85, N-({4-[2-(2-aminopyridin-3-yl)-5-phenylimidazo[4,5-b]pyridin-3-yl]phenyl}methyl)-2-fluoro-4-formyl-3-hydroxybenzamide] |
| > 500 | 4.3 | 39 | < 100 | 100 to 500 | Nc1ncccc1-c1nc2ccc(-c3ccccc3)nc2n1-c1ccc(CNC(=O)Cc2cnc(C=O)c(O)c2)cc1 [Compound 77, N-(4-(2-(2-aminopyridin-3-yl)-5-phenyl-3H-imidazo[4,5-b]pyridin-3-yl)benzyl)-2-(6-formyl-5-hydroxypyridin-3-yl)acetamide] |
| 100 to 500 | 0.51 | 1.7 | 100 to 500 | 100 to 500 | Nc1ncccc1-c1nc2ccc(-c3ccccc3)nc2n1-c1ccc(CNc2cc(-c3ccc(O)c(C=O)c3)ccn2)cc1 [Compound 81, 5-(2-((4-(2-(2-aminopyridin-3-yl)-5-phenyl-3H-imidazo[4,5-b]pyridin-3-yl)benzyl)amino)pyridin-4-yl)-2-hydroxybenzaldehyde] |
| > 500 | 0.85 | 0.91 | > 500 | > 500 | Nc1ncccc1-c1nc2ccc(-c3ccccc3)nc2n1-c1ccc(S(=O)(=O)NCCc2ccc(C=O)c(O)c2)cc1 [Compound 106, 4-[2-(2-aminopyridin-3-yl)-5-phenylimidazo[4,5-b]pyridin-3-yl]-N-[2-(4-formyl-3-hydroxyphenyl)ethyl]benzenesulfonamide] |
| 100 to 500 | 3 | 23 | < 100 | < 100 | Nc1ncccc1-c1nc2ccc(-c3ccccc3)nc2n1-c1ccc(C(=O)NCc2ccc(O)c(C=O)c2)cc1 [Compound 29, 4-(2-(2-aminopyridin-3-yl)-5-phenyl-3H-imidazo[4,5-b]pyridin-3-yl)-N-(3-formyl-4-hydroxybenzyl)benzamide] |
| < 100 | 0.93 | 6.8 | < 100 | < 100 | Nc1ncccc1-c1nc2ccc(-c3cccc(N4CCOCC4)c3)nc2n1-c1ccc(CNC(=O)Cc2ccc(C=O)c(O)c2)cc1 [Compound 55, N-({4-[2-(2-aminopyridin-3-yl)-5-[3-(morpholin-4-yl)phenyl]imidazo[4,5-b]pyridin-3-yl]phenyl}methyl)-2-(4-formyl-3-hydroxyphenyl)acetamide] |
| > 500 | 2.4 | 190 | < 100 | < 100 | Nc1ncccc1-c1nc2ccc(C3CC3)nc2n1-c1ccc(CNC(=O)C(F)c2ccc(C=O)c(O)c2)cc1 (stereo not shown) [Compound 26, N-({4-[2-(2-aminopyridin-3-yl)-5-cyclopropylimidazo[4,5-b]pyridin-3-yl]phenyl}methyl)-2-fluoro-2-(4-formyl-3-hydroxyphenyl)acetamide] |
| 100 to 500 | 2 | 9.2 | < 100 | < 100 | Nc1ncccc1-c1nc2ccc(-c3ccccc3)nc2n1-c1ccc(CCNCCc2ccc(C=O)c(O)c2)cc1 [Compound 36, 4-(2-((4-(2-(2-aminopyridin-3-yl)-5-phenyl-3H-imidazo[4,5-b]pyridin-3-yl)phenethyl)amino)ethyl)-2-hydroxybenzaldehyde] |
| 100 to 500 | 2.6 | 7.7 | < 100 | < 100 | CC(NCCc1ccc(C=O)c(O)c1)c1ccc(-n2c(-c3cccnc3N)nc3ccc(-c4ccccc4)nc32)cc1 (stereo not shown) [Compound 127, 4v-(2-((1-(4-(2-(2-aminopyridin-3-yl)-5-phenyl-3H-imidazo[4,5-b]pyridin-3-yl)phenyl)ethyl)amino)ethyl)-2-hydroxybenzaldehyde] |
